Laboratory results: patent publication US10174016B2 (BAYER AKTIENGESELLSCHAFT, priority 2014, dated 2019)
Where two headings read alike, the source gives them in different places.

Key:
human P2X3 receptor = human P2X3 receptor (Homo sapiens (Human), UniProt P56373); experiment: Intracellular calcium measurement (FLIPR, Fluo-4) of antagonist activity at human P2X3 receptors; assay type: cell-based; conditions: read-out: hP2X3 IC50
Procedure, shortened: (§1)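 Antagonism quantified from peak calcium fluorescence (Fluo-4, FLIPR, 90 sec read) evoked by EC80 α,β-Me-ATP, after a 30 min, 37° C. compound pretreatment in 1% DMSO. Human P2X3- or P2X2/3-expressing cells used; triplicate means fitted for IC50, percent maximal inhibition and Hill coefficient.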

human P2X2/3 receptor = human P2X2/3 receptor (Homo sapiens (Human), UniProt P56373+Q9UBL9); experiment: Intracellular calcium measurement (FLIPR, Fluo-4) of antagonist activity at human P2X2/3 receptors; assay type: cell-based; conditions: human P2X2/3, FLIPR calcium assay, agonist α,β-Me-ATP; read-out: hP2X2/3 IC50
Chain of human P2X2/3 receptor (P56373 whole entry): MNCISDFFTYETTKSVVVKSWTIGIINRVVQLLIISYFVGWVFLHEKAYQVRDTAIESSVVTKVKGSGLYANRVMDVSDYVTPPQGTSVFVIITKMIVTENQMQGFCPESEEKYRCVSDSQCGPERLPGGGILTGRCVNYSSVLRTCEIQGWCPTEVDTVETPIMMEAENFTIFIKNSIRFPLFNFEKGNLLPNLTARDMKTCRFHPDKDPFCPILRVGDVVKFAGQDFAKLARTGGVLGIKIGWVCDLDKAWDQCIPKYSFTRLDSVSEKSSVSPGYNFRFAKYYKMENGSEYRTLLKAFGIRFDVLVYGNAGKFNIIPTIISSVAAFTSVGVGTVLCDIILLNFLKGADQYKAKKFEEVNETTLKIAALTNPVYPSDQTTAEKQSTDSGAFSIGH
Chain of human P2X2/3 receptor (Q9UBL9 whole entry): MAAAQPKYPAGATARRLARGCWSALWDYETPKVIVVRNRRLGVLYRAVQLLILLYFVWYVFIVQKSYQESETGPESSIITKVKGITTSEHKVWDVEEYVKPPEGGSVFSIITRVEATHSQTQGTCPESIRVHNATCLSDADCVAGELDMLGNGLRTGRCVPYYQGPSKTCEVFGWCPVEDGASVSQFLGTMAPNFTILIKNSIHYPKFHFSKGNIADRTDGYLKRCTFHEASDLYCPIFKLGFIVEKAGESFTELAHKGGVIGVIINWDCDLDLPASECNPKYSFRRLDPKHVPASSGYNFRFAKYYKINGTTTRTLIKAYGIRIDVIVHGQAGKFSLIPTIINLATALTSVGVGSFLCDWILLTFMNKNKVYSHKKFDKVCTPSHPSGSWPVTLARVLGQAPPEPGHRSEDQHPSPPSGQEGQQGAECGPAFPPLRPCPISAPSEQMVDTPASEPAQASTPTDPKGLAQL
Procedure, shortened: as §1

[1] = human P2X3, FLIPR calcium assay, agonist α,β-Me-ATP

Chain of human P2X3 receptor (P56373 whole entry): as the sequence (P56373 whole entry) above

`Cc1cnc(-c2cc(OC3CCS(=O)(=O)CC3)cc(C(=O)N[C@H](C)c3cnc(C(F)(F)F)nc3)c2)s1` [Example 232, 3-[(1,1-dioxidotetrahydro-2H-thiopyran-4-yl)oxy]-5-(5-methyl-1,3-thiazol-2-yl)-N-{(1R)-1-[2-(trifluoromethyl)pyrimidin-5-yl]ethyl}benzamide] gave an IC50 (human P2X3 receptor; [1]) of 13 nM and an IC50 (human P2X2/3 receptor) of 759 nM.

`Cc1cnc(-c2cc(OC3CCS(=O)(=O)CC3)cc(C(=O)N[C@H](C)c3ccc(C(F)(F)F)nc3)c2)s1` [Example 233, 3-[(1,1-dioxidotetrahydro-2H-thiopyran-4-yl)oxy]-5-(5-methyl-1,3-thiazol-2-yl)-N-{(1R)-1-[6-(trifluoromethyl)pyridin-3-yl]ethyl}benzamide] gave an IC50 (human P2X3 receptor; [1]) of 16 nM and an IC50 (human P2X2/3 receptor) of 753 nM.

Work on `CCc1cnc(-c2cc(OC3CCOCC3)cc(C(=O)NCc3ccc(C)nn3)c2)s1` [Example 235, 3-(5-ethyl-1,3-thiazol-2-yl)-N-[(6-methylpyridazin-3-yl)methyl]-5-(tetrahydro-2H-pyran-4-yloxy)benzamide] yielded an IC50 (human P2X3 receptor; [1]) of 18 nM and an IC50 (human P2X2/3 receptor) of 70 nM.

With `Cc1ccc(CNC(=O)c2cc(OC3CCOCC3)cc(-c3ncc(C4CCC4)s3)c2)nn1` [Example 237, 3-(5-cyclobutyl-1,3-thiazol-2-yl)-N-[(6-methylpyridazin-3-yl)methyl]-5-(tetrahydro-2H-pyran-4-yloxy)benzamide] the IC50 (human P2X3 receptor; [1]) was 177 nM and the IC50 (human P2X2/3 receptor) was 537 nM.

`C[C@@H](NC(=O)c1cc(OC2CCOCC2)cc(-c2ncc(C3CCC3)s2)c1)c1cnc(C(F)(F)F)nc1` [Example 238, 3-(5-cyclobutyl-1,3-thiazol-2-yl)-5-(tetrahydro-2H-pyran-4-yloxy)-N-{(1R)-1-[2-(trifluoromethyl)pyrimidin-5-yl]ethyl}benzamide] gave an IC50 (human P2X3 receptor; [1]) of 38 nM and an IC50 (human P2X2/3 receptor) of 397 nM.

For `C[C@H](NC(=O)c1cc(OC[C@H]2CCOC2)cc(-c2ncc(C3CCC3)s2)c1)c1cnc(C(F)(F)F)nc1` [Example 239, 3-(5-cyclobutyl-1,3-thiazol-2-yl)-5-[(3S)-tetrahydrofuran-3-ylmethoxy]-N-{(1S)-1-[2-(trifluoromethyl)pyrimidin-5-yl]ethyl}benzamide], the IC50 (human P2X3 receptor; [1]) was 1420 nM and the IC50 (human P2X2/3 receptor) was 2170 nM.

`CCc1cnc(-c2cc(O[C@@H]3CCOC3)cc(C(=O)N[C@H](C)c3ccc(C)nn3)c2)s1` [Example 240, 3-(5-ethyl-1,3-thiazol-2-yl)-N-[(1R)-1-(6-methylpyridazin-3-yl)ethyl]-5-[(3R)-tetrahydrofuran-3-yloxy]benzamide] gave an IC50 (human P2X3 receptor; [1]) of 12 nM and an IC50 (human P2X2/3 receptor) of 35 nM.

In the case of `CCc1cnc(-c2cc(O[C@@H]3CCOC3)cc(C(=O)N[C@H](C)c3cnc(C(F)(F)F)nc3)c2)s1` [Example 242, 3-(5-ethyl-1,3-thiazol-2-yl)-5-[(3R)-tetrahydrofuran-3-yloxy]-N-{(1R)-1-[2-(trifluoromethyl)pyrimidin-5-yl]ethyl}benzamide], the IC50 (human P2X3 receptor; [1]) is reported as 2 nM and the IC50 (human P2X2/3 receptor) is reported as 22 nM.

For `Cc1ccc([C@@H](C)NC(=O)c2cc(O[C@@H]3CCOC3)cc(-c3ncc(C(C)C)s3)c2)nn1` [Example 246, N-[(1R)-1-(6-methylpyridazin-3-yl)ethyl]-3-[5-(propan-2-yl)-1,3-thiazol-2-yl]-5-[(3R)-tetrahydrofuran-3-yloxy]benzamide], the IC50 (human P2X3 receptor; [1]) was 266 nM and the IC50 (human P2X2/3 receptor) was 982 nM.

`CC(C)c1cnc(-c2cc(O[C@@H]3CCOC3)cc(C(=O)N[C@H](C)c3cnc(C(F)(F)F)nc3)c2)s1` [Example 248, 3-[5-(propan-2-yl)-1,3-thiazol-2-yl]-5-[(3R)-tetrahydrofuran-3-yloxy]-N-{(1R)-1-[2-(trifluoromethyl)pyrimidin-5-yl]ethyl}benzamide] was tested, and the IC50 (human P2X3 receptor; [1]) was 44 nM and the IC50 (human P2X2/3 receptor) was 273 nM.

Work on `CCc1cnc(-c2cc(O[C@H]3CCOC3)cc(C(=O)N[C@H](C)c3ccc(C)nn3)c2)s1` [Example 249, 3-(5-ethyl-1,3-thiazol-2-yl)-N-[(1R)-1-(6-methylpyridazin-3-yl)ethyl]-5-[(3S)-tetrahydrofuran-3-yloxy]benzamide] yielded an IC50 (human P2X3 receptor; [1]) of 11 nM and an IC50 (human P2X2/3 receptor) of 57 nM.

`CCc1cnc(-c2cc(O[C@H]3CCOC3)cc(C(=O)N[C@H](C)c3cnc(C(F)(F)F)nc3)c2)s1` [Example 251, 3-(5-ethyl-1,3-thiazol-2-yl)-5-[(3S)-tetrahydrofuran-3-yloxy]-N-{(1R)-1-[2-(trifluoromethyl)pyrimidin-5-yl]ethyl}benzamide] gave an IC50 (human P2X3 receptor; [1]) of 5 nM and an IC50 (human P2X2/3 receptor) of 38 nM.

For `Cc1ccc([C@@H](C)NC(=O)c2cc(O[C@H]3CCOC3)cc(-c3ncc(C(C)C)s3)c2)nn1` [Example 255, N-[(1R)-1-(6-methylpyridazin-3-yl)ethyl]-3-[5-(propan-2-yl)-1,3-thiazol-2-yl]-5-[(3S)-tetrahydrofuran-3-yloxy]benzamide], the IC50 (human P2X3 receptor; [1]) was 254 nM and the IC50 (human P2X2/3 receptor) was 449 nM.

`CC(C)c1cnc(-c2cc(O[C@H]3CCOC3)cc(C(=O)N[C@H](C)c3cnc(C(F)(F)F)nc3)c2)s1` [Example 257, 3-[5-(propan-2-yl)-1,3-thiazol-2-yl]-5-[(3S)-tetrahydrofuran-3-yloxy]-N-{(1R)-1-[2-(trifluoromethyl)pyrimidin-5-yl]ethyl}benzamide] showed an IC50 (human P2X3 receptor; [1]) of 47 nM and an IC50 (human P2X2/3 receptor) of 324 nM.

Compound `CCc1cnc(-c2cc(OC[C@@H]3CCOC3)cc(C(=O)N[C@H](C)c3cnc(C)cn3)c2)s1` [Example 259, 3-(5-ethyl-1,3-thiazol-2-yl)-N-[(1R)-1-(5-methylpyrazin-2-yl)ethyl]-5-[(3R)-tetrahydrofuran-3-ylmethoxy]benzamide] has an IC50 (human P2X3 receptor; [1]) of 10 nM and an IC50 (human P2X2/3 receptor) of 102 nM.

Work on `CCc1cnc(-c2cc(OC[C@@H]3CCOC3)cc(C(=O)N[C@H](C)c3cnc(C(F)(F)F)nc3)c2)s1` [Example 260, 3-(5-ethyl-1,3-thiazol-2-yl)-5-[(3R)-tetrahydrofuran-3-ylmethoxy]-N-{(1R)-1-[2-(trifluoromethyl)pyrimidin-5-yl]ethyl}benzamide] yielded an IC50 (human P2X3 receptor; [1]) of 2 nM and an IC50 (human P2X2/3 receptor) of 14 nM.

For `Cc1ccc([C@@H](C)NC(=O)c2cc(OC[C@@H]3CCOC3)cc(-c3ncc(C4CCC4)s3)c2)nn1` [Example 261, 3-(5-cyclobutyl-1,3-thiazol-2-yl)-N-[(1R)-1-(6-methylpyridazin-3-yl)ethyl]-5-[(3R)-tetrahydrofuran-3-ylmethoxy]benzamide], the IC50 (human P2X3 receptor; [1]) was 45 nM and the IC50 (human P2X2/3 receptor) was 317 nM.

For `C[C@@H](NC(=O)c1cc(OC[C@@H]2CCOC2)cc(-c2ncc(C3CCC3)s2)c1)c1cnc(C(F)(F)F)nc1` [Example 263, 3-(5-cyclobutyl-1,3-thiazol-2-yl)-5-[(3R)-tetrahydrofuran-3-ylmethoxy]-N-{(1R)-1-[2-(trifluoromethyl)pyrimidin-5-yl]ethyl}benzamide], the IC50 (human P2X3 receptor; [1]) was 33 nM and the IC50 (human P2X2/3 receptor) was 170 nM.

`Cc1ccc([C@@H](C)NC(=O)c2cc(OC[C@@H]3CCOC3)cc(-c3ncc(C(C)C)s3)c2)nn1` [Example 264, N-[(1R)-1-(6-methylpyridazin-3-yl)ethyl]-3-[5-(propan-2-yl)-1,3-thiazol-2-yl]-5-[(3R)-tetrahydrofuran-3-ylmethoxy]benzamide] gave an IC50 (human P2X3 receptor; [1]) of 81 nM and an IC50 (human P2X2/3 receptor) of 530 nM.

Compound `CC(C)c1cnc(-c2cc(OC[C@@H]3CCOC3)cc(C(=O)N[C@H](C)c3cnc(C(F)(F)F)nc3)c2)s1` [Example 266, 3-[5-(propan-2-yl)-1,3-thiazol-2-yl]-5-[(3R)-tetrahydrofuran-3-ylmethoxy]-N-{(1R)-1-[2-(trifluoromethyl)pyrimidin-5-yl]ethyl}benzamide] has an IC50 (human P2X3 receptor; [1]) of 41 nM and an IC50 (human P2X2/3 receptor) of 367 nM.

`CCc1cnc(-c2cc(OC[C@H]3CCCO3)cc(C(=O)N[C@H](C)c3cnc(C)cn3)c2)s1` [Example 268, 3-(5-ethyl-1,3-thiazol-2-yl)-N-[(1R)-1-(5-methylpyrazin-2-yl)ethyl]-5-[(2R)-tetrahydrofuran-2-ylmethoxy]benzamide] gave an IC50 (human P2X3 receptor) of 14 nM and an IC50 (human P2X2/3 receptor) of 392 nM.

`CCc1cnc(-c2cc(OC[C@H]3CCCO3)cc(C(=O)N[C@H](C)c3cnc(C(F)(F)F)nc3)c2)s1` [Example 269, 3-(5-ethyl-1,3-thiazol-2-yl)-5-[(2R)-tetrahydrofuran-2-ylmethoxy]-N-{(1R)-1-[2-(trifluoromethyl)pyrimidin-5-yl]ethyl}benzamide] showed an IC50 (human P2X3 receptor; [1]) of 2 nM and an IC50 (human P2X2/3 receptor) of 35 nM.

Work on `Cc1ccc([C@@H](C)NC(=O)c2cc(OC[C@H]3CCCO3)cc(-c3ncc(C4CCC4)s3)c2)nn1` [Example 270, 3-(5-cyclobutyl-1,3-thiazol-2-yl)-N-[(1R)-1-(6-methylpyridazin-3-yl)ethyl]-5-[(2R)-tetrahydrofuran-2-ylmethoxy]benzamide] yielded an IC50 (human P2X3 receptor; [1]) of 25 nM and an IC50 (human P2X2/3 receptor) of 100 nM.

With `C[C@@H](NC(=O)c1cc(OC[C@H]2CCCO2)cc(-c2ncc(C3CCC3)s2)c1)c1cnc(C(F)(F)F)nc1` [Example 272, 3-(5-cyclobutyl-1,3-thiazol-2-yl)-5-[(2R)-tetrahydrofuran-2-ylmethoxy]-N-{(1R)-1-[2-(trifluoromethyl)pyrimidin-5-yl]ethyl}benzamide] the IC50 (human P2X3 receptor) was 19 nM and the IC50 (human P2X2/3 receptor) was 128 nM.

`Cc1ccc([C@@H](C)NC(=O)c2cc(OC[C@H]3CCCO3)cc(-c3ncc(C(C)C)s3)c2)nn1` [Example 273, N-[(1R)-1-(6-methylpyridazin-3-yl)ethyl]-3-[5-(propan-2-yl)-1,3-thiazol-2-yl]-5-[(2R)-tetrahydrofuran-2-ylmethoxy]benzamide] showed an IC50 (human P2X3 receptor) of 28 nM and an IC50 (human P2X2/3 receptor) of 254 nM.

Compound `CC(C)c1cnc(-c2cc(OC[C@H]3CCCO3)cc(C(=O)N[C@H](C)c3cnc(C(F)(F)F)nc3)c2)s1` [Example 275, 3-[5-(propan-2-yl)-1,3-thiazol-2-yl]-5-[(2R)-tetrahydrofuran-2-ylmethoxy]-N-{(1R)-1-[2-(trifluoromethyl)pyrimidin-5-yl]ethyl}benzamide] has an IC50 (human P2X3 receptor) of 21 nM and an IC50 (human P2X2/3 receptor) of 191 nM.

Work on `CCc1cnc(-c2cc(OC[C@H]3CCOC3)cc(C(=O)N[C@H](C)c3cnc(C)cn3)c2)s1` [Example 277, 3-(5-ethyl-1,3-thiazol-2-yl)-N-[(1R)-1-(5-methylpyrazin-2-yl)ethyl]-5-[(3S)-tetrahydrofuran-3-ylmethoxy]benzamide] yielded an IC50 (human P2X3 receptor; [1]) of 6 nM and an IC50 (human P2X2/3 receptor) of 96 nM.
